This passage reports Kd results from article PMC12133102, “Deciphering the Physical Binding Mechanism of Enzyme–Photosensitizer Facilitates Catalysis-Augmented Photodynamic Therapy” (Research, 2025).

For this assay, the target named is T1, HSA (human serum albumin) (Homo sapiens, UniProt P02768).
T1 construct: gene ALB; commercial HSA (Shanghai Yuanye); amine-coupled to CM5 chip
Briefly: SPR (Biacore T200, immobilized protein on CM5). Type of assay: binding. In general terms: In SPR one partner is held on a chip, and binding of the other changes the refractive index at the surface.

SMILES strings stand for the structures.

T1 sequence (P02768 25-609): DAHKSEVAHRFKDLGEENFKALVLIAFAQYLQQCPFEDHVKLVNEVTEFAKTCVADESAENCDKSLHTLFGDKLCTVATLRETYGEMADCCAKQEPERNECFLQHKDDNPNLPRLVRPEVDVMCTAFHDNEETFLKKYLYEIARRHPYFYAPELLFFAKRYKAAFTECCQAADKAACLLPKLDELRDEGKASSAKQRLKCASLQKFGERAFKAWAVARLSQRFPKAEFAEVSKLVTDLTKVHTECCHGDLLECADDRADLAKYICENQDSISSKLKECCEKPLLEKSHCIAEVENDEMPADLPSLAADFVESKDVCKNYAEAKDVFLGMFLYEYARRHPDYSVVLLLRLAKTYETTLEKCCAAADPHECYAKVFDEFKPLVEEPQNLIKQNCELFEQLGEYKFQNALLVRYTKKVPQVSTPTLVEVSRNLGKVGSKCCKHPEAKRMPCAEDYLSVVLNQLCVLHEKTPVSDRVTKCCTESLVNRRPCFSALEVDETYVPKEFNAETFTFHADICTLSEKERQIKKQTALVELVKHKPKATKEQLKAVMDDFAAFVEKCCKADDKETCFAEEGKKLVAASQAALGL

For the compound `C=Cc1c(C)c2cc3nc(c(CC(=O)O)c4[nH]c(cc5nc(cc1[nH]2)C(C)=C5CC)c(C)c4C(=O)O)[C@@H](CCC(=O)O)[C@@H]3C` [Ce6], binding was characterised by a dissociation constant (Kd) of 2120 nM.
